What was measured:
mouse [1] = details: Carcinogenicity, cd1, Oral, Feed, dose end: 24 month, group: systemic
rat [2] = details: Prenatal developmental toxicity study, sprague dawley, Oral, Gavage/Intubation, dose end: 15 GD
mouse [3] = details: Carcinogenicity, cd1, Oral, Feed, dose end: 18 month, group: systemic
rat [4] = details: Multigenerational reproductive toxicity study, other, Oral, Feed, dose end: 2 generation
dog [5] = details: Subchronic oral toxicity in nonrodent, beagle, Feed, dose end: 13 week, group: systemic, systemic / pathology microscopic / stomach / [other]
dog [6] = details: Chronic toxicity, beagle, Oral, Feed, dose end: 52 week, group: systemic
rat [7] = details: Combined chronic toxicity/carcinogenicity, sprague dawley, Oral, Feed, dose end: 24 month, group: systemic
mouse [8] = details: Subchronic oral toxicity in rodents, cd1, Feed, dose end: 13 week, group: systemic
rat [9] = details: Prenatal developmental toxicity study, sprague dawley, Oral, Gavage/Intubation, dose end: 15 GD; remark: listed apart in the source
mouse [10] = details: Subchronic oral toxicity in rodents, cd1, Feed, dose end: 13 week, group: systemic, systemic / pathology microscopic / liver / hypertrophy + systemic / pathology microscopic / liver / necrosis + systemic / pathology …
mouse [11] = details: Subchronic oral toxicity in rodents, cd1, Feed, dose end: 17 week, group: systemic, systemic / organ weight / liver / absolute + systemic / organ weight / liver / relative to body weight + systemic / organ weight / liver / …
rabbit = details: Prenatal developmental toxicity study, new zealand white, Oral, Gavage/Intubation, dose end: 19 GD
rat [12] = details: Subchronic oral toxicity in rodents, other, Feed, dose end: 3 month, group: systemic
[13] = systemic / pathology microscopic / liver / lesion(s) (nos) + systemic / organ weight / liver / nos
[14] = group: developmental, developmental / developmental malformation / mouth / jaw / cleft palate + systemic / in life observation / body weight / fetal weight
[15] = group: maternal, systemic / in life observation / body weight / body weight gain + systemic / in life observation / clinical signs / ataxia + systemic / in …
[16] = systemic / pathology microscopic / liver / hypertrophy + systemic / organ weight / liver / absolute + systemic / organ weight / liver / …
[17] = group: offspring, systemic / in life observation / body weight / offspring (pup) weight + systemic / pathology microscopic / liver / hypertrophy
[18] = group: offspring, systemic / in life observation / body weight / offspring (pup) weight + systemic / pathology microscopic / liver / hypertrophy + …
[19] = group: parental, systemic / pathology microscopic / liver / hypertrophy
[20] = group: parental, systemic / pathology microscopic / liver / hypertrophy + systemic / in life observation / food consumption / food consumption + systemic / …
[21] = group: reproductive, reproductive / offspring survival early / litter size / litter size + reproductive / offspring survival early / birth index / live birth …
[22] = systemic / pathology microscopic / mammary gland / hypertrophy
[23] = systemic / pathology microscopic / stomach / hyperemia
[24] = systemic / in life observation / body weight / body weight gain + systemic / pathology microscopic / liver / hypertrophy + systemic / …
[25] = systemic / pathology microscopic / liver / hypertrophy + systemic / pathology microscopic / liver / necrosis + systemic / pathology …
[26] = group: developmental, developmental / developmental malformation / bone / short + developmental / developmental malformation / bone / unossified + developmental…
[27] = group: maternal, systemic / in life observation / body weight / body weight gain + systemic / in life observation / food consumption / food consumption
[28] = group: maternal, systemic / in life observation / body weight / body weight gain + systemic / in life observation / food consumption / food consumption + …
[29] = group: developmental, developmental / developmental malformation / bone / full supernumerary
[30] = systemic / in life observation / body weight / body weight gain

SMILES: CCCC1COC(Cn2cncn2)(c2ccc(Cl)cc2Cl)O1 (configuration not stated) [Propiconazole]
- NEL (mouse [1]; systemic / organ weight / liver / nos + systemic / clinical chemistry / alanine aminotransferase (alt/sgpt) / alanine aminotransferase (alt/…): 10 mg/kg/day
- LEL (mouse [1]; [13]): 49.4 mg/kg/day
- LOAEL (mouse [1]; [13]): 49.4 mg/kg/day
- NOAEL (mouse [1]; systemic / pathology microscopic / liver / lesion(s) (nos) + systemic / organ weight / liver / nos + systemic / pathology microscopic / …): 10 mg/kg/day
- LEL (rat [2]; [14]): 300 mg/kg/day
- LOAEL (rat [2]; [14]): > 300 mg/kg/day
- NEL (rat [2]; [14]): < 300 mg/kg/day
- NOAEL (rat [2]; [14]): ≥ 300 mg/kg/day
- LEL (rat [2]; [15]): 300 mg/kg/day
- LOAEL (rat [2]; [15]): 300 mg/kg/day
- NEL (rat [2]; [15]): < 300 mg/kg/day
- NOAEL (rat [2]; [15]): < 300 mg/kg/day
- LOAEL (mouse [3]; systemic / pathology microscopic / liver / hypertrophy + systemic / in life observation / body weight / body weight gain): 59 mg/kg/day
- LEL (mouse [3]; systemic / pathology microscopic / liver / hypertrophy + systemic / in life observation / body weight / body weight gain + systemic / organ …): 59 mg/kg/day
- NEL (mouse [3]; [16]): 11 mg/kg/day
- NOAEL (mouse [3]; [16]): 11 mg/kg/day
- NEL (rat [4]; [17]): 48 mg/kg/day
- NOAEL (rat [4]; [17]): 48 mg/kg/day
- LEL (rat [4]; [18]): 238 mg/kg/day
- LOAEL (rat [4]; [18]): 238 mg/kg/day
- LEL (rat [4]; [19]): 42 mg/kg/day
- LOAEL (rat [4]; [19]): 42 mg/kg/day
- NEL (rat [4]; [20]): 8 mg/kg/day
- NOAEL (rat [4]; [20]): 8 mg/kg/day
- LEL (rat [4]; [21]): 238 mg/kg/day
- LOAEL (rat [4]; [21]): > 238 mg/kg/day
- NEL (rat [4]; [21]): 48 mg/kg/day
- NOAEL (rat [4]; [21]): ≥ 238 mg/kg/day
- LEL (dog [5]): 6.25 mg/kg/day
- LOAEL (dog [5]): 6.25 mg/kg/day
- NEL (dog [5]): 1.25 mg/kg/day
- NOAEL (dog [5]): 1.25 mg/kg/day
- LEL (dog [6]; [22]): 1.9 mg/kg/day
- NEL (dog [6]; [22]): 0.2 mg/kg/day
- LOAEL (dog [6]; [23]): 8.4 mg/kg/day
- NOAEL (dog [6]; [23]): 1.9 mg/kg/day
- LEL (rat [7]; [24]): 96.4 mg/kg/day
- LOAEL (rat [7]; [24]): 96.4 mg/kg/day
- NOAEL (rat [7]; [24]): 18.1 mg/kg/day
- NEL (rat [7]; systemic / organ weight / liver / nos): 18.1 mg/kg/day
- LOAEL (mouse [8]; systemic / pathology microscopic / liver / hypertrophy): 65 mg/kg/day
- LEL (mouse [8]; systemic / pathology microscopic / liver / hypertrophy + systemic / pathology microscopic / liver / necrosis): 65 mg/kg/day
- NEL (mouse [8]; [25]): 2.7 mg/kg/day
- NOAEL (mouse [8]; [25]): 2.7 mg/kg/day
- LEL (rat [9]; [26]): 90 mg/kg/day
- LOAEL (rat [9]; [26]): 90 mg/kg/day
- NEL (rat [9]; [26]): 30 mg/kg/day
- NOAEL (rat [9]; [26]): 30 mg/kg/day
- LEL (rat [9]; [27]): 90 mg/kg/day
- NEL (rat [9]; [28]): 30 mg/kg/day
- NOAEL (rat [9]; [28]): 90 mg/kg/day
- LOAEL (rat [9]; group: maternal, systemic / in life observation / clinical signs / ataxia + systemic / in life observation / clinical signs / lethargy + systemic / in life …): 300 mg/kg/day
- LEL (mouse [10]): 65 mg/kg/day
- LOAEL (mouse [10]): 65 mg/kg/day
- NEL (mouse [10]): 2.7 mg/kg/day
- NOAEL (mouse [10]): 2.7 mg/kg/day
- LEL (mouse [11]): 65 mg/kg/day
- LOAEL (mouse [11]): 65 mg/kg/day
- NEL (mouse [11]): 2.7 mg/kg/day
- NOAEL (mouse [11]): 2.7 mg/kg/day
- LEL (rabbit; [29]): 400 mg/kg/day
- LOAEL (rabbit; [29]): > 400 mg/kg/day
- NEL (rabbit; [29]): 250 mg/kg/day
- NOAEL (rabbit; [29]): ≥ 400 mg/kg/day
- LEL (rabbit; [27]): 250 mg/kg/day
- LOAEL (rabbit; [27]): 250 mg/kg/day
- NEL (rabbit; [28]): 100 mg/kg/day
- NOAEL (rabbit; [28]): 100 mg/kg/day
- LEL (rat [12]; [30]): 16.8 mg/kg/day
- LOAEL (rat [12]; [30]): 77.6 mg/kg/day
- NEL (rat [12]; [30]): < 16.8 mg/kg/day
- NOAEL (rat [12]; systemic / in life observation / body weight / body weight gain + systemic / clinical chemistry / alkaline phosphatase (alp/alk) / alkaline …): 16.8 mg/kg/day

From EPA's ToxRefDB 2
